The test has as its target T1, human adenosine A2b receptor (Homo sapiens, UniProt P29275).
T1 sequence (P29275 1-332): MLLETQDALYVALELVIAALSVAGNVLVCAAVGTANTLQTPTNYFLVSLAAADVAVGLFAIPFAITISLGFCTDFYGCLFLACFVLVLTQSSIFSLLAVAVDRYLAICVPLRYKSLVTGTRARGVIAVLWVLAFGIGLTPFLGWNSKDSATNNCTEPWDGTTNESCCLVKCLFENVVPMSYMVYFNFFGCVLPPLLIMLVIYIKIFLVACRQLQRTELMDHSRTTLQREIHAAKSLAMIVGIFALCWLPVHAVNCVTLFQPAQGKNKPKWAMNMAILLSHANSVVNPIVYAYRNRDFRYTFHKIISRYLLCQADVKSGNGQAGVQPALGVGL
The test can be described thus: Cellular in vitro reporter gene test for A2b receptor activity (antagonism of NECA). The format is cell-based. Also on record: expressed in transfected cells; host or cells: CHO-K1 (Chinese hamster ovary) with CRE-luciferase reporter. The conditions noted are these: recombinant CHO-K1 cells, CRE-luciferase reporter, co-incubation with EC50 concentration of NECA, 3 hours. In a few lines: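 CHO-K1 cells expressing recombinant human A2b receptor plus a CRE-driven firefly luciferase reporter. Compounds co-incubated with NECA at its same-day EC50 concentration; luminescence read 3 hours after NECA addition. IC50 values, sometimes means of several determinations rounded to two significant figures.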

What is called IC50 is the midpoint of a concentration-inhibition curve. `COCCn1c(=O)n(C2CC2OC)c(=O)c2c(C)c(CN3CCNC3=O)sc21` (single isomer, unassigned) [Example 308, 3-(2-Methoxycyclopropyl)-1-(2-methoxyethyl)-5-methyl-6-[(2-oxoimidazolidin-1-yl)methyl]thieno[2,3-d]pyrimidine-2,4(1H,3H)-dione]: the IC50 was 870 nM. As for `COCCn1c(=O)n(C2(C)CC2)c(=O)c2c(C)c(CN3CCNC3=NC(=O)OC)sc21` [Example 72, Methyl [1-{[1-(2-methoxyethyl)-5-methyl-3-(1-methylcyclopropyl)-2,4-dioxo-1,2,3,4-tetrahydrothieno[2,3-d]pyrimidin-6-yl]methyl}imidazolidine-2-ylidene]carbamate], the IC50 came out at 15 nM. Regarding `Cc1c(CN2CCNC(=O)C2=O)sc2c1c(=O)n(C1CC1)c(=O)n2CCC(F)(F)F` [Example 13, 3-Cyclopropyl-6-[(2,3-dioxopiperazin-1-yl)methyl]-5-methyl-1-(3,3,3-trifluoropropyl)thieno[2,3-d]pyrimidine-2,4(1H,3H)-dione], the IC50 was 4 nM. `CCC1(n2c(=O)c3c(C)c(CN4CCNC4=O)sc3n(CCOC)c2=O)CC1` [Example 108, 3-(1-Ethylcyclopropyl)-1-(2-methoxyethyl)-5-methyl-6-[(2-oxoimidazolidin-1-yl)methyl]thieno[2,3-d]pyrimidine-2,4(1H,3H)-dione]: the IC50 turned out to be 110 nM.

With `Cc1c(Cn2nc[nH]c2=O)sc2c1c(=O)n(C1CC1)c(=O)n2C[C@H]1CCCO1` [Example 50, 3-Cyclopropyl-5-methyl-6-[(5-oxo-4,5-dihydro-1H-1,2,4-triazol-1-yl)methyl]-1-[(2R)-tetrahydrofuran-2-ylmethyl]thieno[2,3-d]pyrimidine-2,4(1H,3H)-dione], the IC50 is 140 nM. Regarding `Cc1c(CN2CCNC2=NC#N)sc2c1c(=O)n(C1CC1C)c(=O)n2CCOC(F)(F)F` (single isomer, unassigned) [Example 266, [1-({5-Methyl-3-(2-methylcyclopropyl)-2,4-dioxo-1-[2-(trifluoromethoxy)ethyl]-1,2,3,4-tetrahydrothieno[2,3-d]pyrimidin-6-yl}methyl)imidazolidin-2-ylidene]cyanamide], the IC50 came to 0.96 nM.

`Cc1c(CN2CCNC2=O)sc2c1c(=O)n(C1CC1)c(=O)n2CC1CCCO1` (racemic) [Example 37, 3-Cyclopropyl-5-methyl-6-[(2-oxoimidazolidin-1-yl)methyl]-1-(tetrahydrofuran-2-ylmethyl)thieno[2,3-d]pyrimidine-2,4(1H,3H)-dione]: the IC50 was found to be 35 nM.

Regarding `Cc1c(CN2CCNC2=NC#N)sc2c1c(=O)n(C1COC1)c(=O)n2CCC(F)(F)F` [Example 131, [1-{[5-Methyl-3-(oxetan-3-yl)-2,4-dioxo-1-(3,3,3-trifluoropropyl)-1,2,3,4-tetrahydrothieno[2,3-d]pyrimidin-6-yl]methyl}imidazolidin-2-ylidene]cyanamide], the IC50 was 68 nM. As to `Cc1c(Cn2nc[nH]c2=O)sc2c1c(=O)n(C1CC1)c(=O)n2CC1CCCO1` (racemic) [Example 49, 3-Cyclopropyl-5-methyl-6-[(5-oxo-4,5-dihydro-1H-1,2,4-triazol-1-yl)methyl]-1-(tetrahydrofuran-2-ylmethyl)thieno[2,3-d]pyrimidine-2,4(1H,3H)-dione], the IC50 was 110 nM. The result for `COC(=O)N=C1NCCN1Cc1sc2c(c1C)c(=O)n([C@H]1C[C@H](OC)C1)c(=O)n2CCC(F)(F)F` [Example 146, Methyl [1-{[3-(trans-3-methoxycyclobutyl)-5-methyl-2,4-dioxo-1-(3,3,3-trifluoropropyl)-1,2,3,4-tetrahydrothieno[2,3-d]pyrimidin-6-yl]methyl}imidazolidin-2-ylidene]carbamate] reads 6.2 nM.
